Experimental data reported in ChEMBL document CHEMBL4270572, “Synthesis and biological evaluation of novel larotaxel analogues” (Eur J Med Chem, 2018).

Columns and labels:
in vivo [1] = details: beagle, dog, iv, 0.6 mg/kg
in vivo [2] = details: beagle, dog, iv, 1.2 mg/kg
in vivo [3] = details: beagle, dog, iv, 0.6 mg/kg; remark: listed apart in the source
in vivo [4] = details: beagle, dog, iv, 1.2 mg/kg; remark: listed apart in the source
in vivo [5] = details: beagle, dog, iv, 2.4 mg/kg
in vivo [6] = details: beagle, dog, iv, 2.4 mg/kg; remark: listed apart in the source
in vivo [7] = details: beagle, dog, iv, 0.6 mg/kg; remark: listed apart in the source
in vivo [8] = details: beagle, dog, iv, 2.4 mg/kg; remark: listed apart in the source
in vivo [9] = details: beagle, dog, iv, 0.6 mg/kg; remark: listed apart in the source
in vivo [10] = details: beagle, dog, iv, 1.2 mg/kg; remark: listed apart in the source
in vivo [11] = details: beagle, dog, iv, 1.2 mg/kg; remark: listed apart in the source
in vivo [12] = details: beagle, dog, iv, 2.4 mg/kg; remark: listed apart in the source

Q: For `CC(=O)O[C@H]1C(=O)[C@]23C[C@H]2C[C@H]2OC[C@@]2(OC(C)=O)[C@H]3[C@H](OC(=O)c2ccccc2)[C@]2(O)C[C@H](OC(=O)[C@H](O)[C@H](CC(C)C)NC(=O)OC(C)(C)C)C(C)=C1C2(C)C`, which half-life (in vivo [1]) is on record?
A: The half-life was 6.06 h.

Q: And the half-life (in vivo [2])?
A: Its half-life is 11.2 h.

Q: What about the Cmax (in vivo [3]) of the same compound?
A: Its Cmax is 67.1 ng/mL.

Q: And the Vd (in vivo [4])?
A: The Vd was 34.8 L/kg.

Q: And the Tmax (in vivo [5])?
A: The Tmax was 0.97 h.

Q: And the Vd (in vivo [6])?
A: Its Vd is 30.8 L/kg.

Q: What about the Tmax (in vivo [7]) of the same compound?
A: Its Tmax is 0.89 h.

Q: And the half-life (in vivo [8])?
A: Its half-life is 8.35 h.

Q: What about the Vd (in vivo [9]) of the same compound?
A: Its Vd is 45.6 L/kg.

Q: What about the Tmax (in vivo [10]) of the same compound?
A: Its Tmax is 0.81 h.

Q: What about the Cmax (in vivo [11]) of the same compound?
A: The Cmax was 388 ng/mL.

Q: What about the Cmax (in vivo [12]) of the same compound?
A: Its Cmax is 974 ng/mL.
